12 molecules from ChEMBL document CHEMBL1201862, “PubChem BioAssay data set” (2004) can be followed below.

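The compound was tested at five concentrations on cells cultured in 96-well plates, with a 48-hour exposure period. GI50 is the concentration that inhibits growth by half.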 Active and inactive are the calls of the source. Rule as the data show it: active = GI50 up to about 1.1 µM and inactive = higher. Some results are limits rather than exact numbers.

Test systems include CAKI-1; CCRF-CEM; K562; M14; NCI-H460; OVCAR-8; RPMI-8226; RXF 393; SF-539; SK-MEL-28; SK-OV-3; SNB-19; SW-620; UACC-62; UO-31; KM12; Malme-3M; NCI-H226.
Assay in all cases: NCI-60 cell line screen, 48 h

As to `c1cncc(C2N3CCCCC3[C@@H]3c4[nH]c5ccccc5c4CCN23)c1` (stereo partly specified), the GI50 with CAKI-1, in the assay on CCRF-CEM, in the assay on K562, in the assay on M14, with NCI-H460 and with OVCAR-8 was > 100 µM (inactive) in each case. In addition, the GI50 with RPMI-8226 was > 100 µM (inactive); in the assay on RXF 393, 21.1 µM (inactive); with SF-539, > 100 µM (inactive); with SK-MEL-28 it was > 100 µM (inactive); in the assay with SK-OV-3, > 100 µM (inactive); with SNB-19, > 100 µM (inactive). In addition, the GI50 is > 100 µM (inactive) with SW-620, 47.6 µM (inactive) with UACC-62 and > 100 µM (inactive) with UO-31.

On to `C#CC1(O)CCC2C3CCc4cc(Oc5nc(F)nc(-c6c7ccccc7c7sc8ccccc8n67)n5)ccc4C3CC[C@@]21C` (stereo partly specified), for which the GI50 in the assay with CAKI-1 is > 100 µM (inactive); in the assay on CCRF-CEM, 35.2 µM (inactive); with K562 it was > 100 µM (inactive); with KM12 it was > 100 µM (inactive); in the assay with M14, 26.1 µM (inactive); with Malme-3M, > 100 µM (inactive). Further, the GI50 with NCI-H226, in the assay on NCI-H460, with OVCAR-8, in the assay with RPMI-8226, with SF-539 and in the assay with SK-MEL-28 was > 100 µM (inactive) each time. For the same molecule, the GI50 with SNB-19 is 36.3 µM (inactive); in the assay with SW-620, > 100 µM (inactive); with UACC-62 it was > 100 µM (inactive); in the assay with UO-31, > 100 µM (inactive).

In the case of `C/C(CN1C(=O)c2ccccc2C1=O)=N\NS(=O)(=O)c1ccc(C)cc1`, the GI50 in the assay with CAKI-1, in the assay on CCRF-CEM, in the assay on K562, in the assay with KM12, in the assay on M14 and with Malme-3M was > 100 µM (inactive) throughout. For the same molecule, the GI50 in the assay with NCI-H226, in the assay with NCI-H460, with OVCAR-8, in the assay with RPMI-8226, with SF-539 and in the assay with SK-OV-3 was > 100 µM (inactive) in each case. Further, the GI50 with SNB-19, in the assay on SW-620, with UACC-62 and in the assay on UO-31 was > 100 µM (inactive) each time.

Consider `CCc1cccc(C)c1NC(=O)C(=O)Cc1nc2ccccc2s1`, for which the GI50 in the assay on CAKI-1, in the assay on CCRF-CEM, in the assay on K562, in the assay with KM12, with M14 and in the assay on Malme-3M was > 100 µM (inactive) each time. The GI50 with NCI-H226, in the assay with NCI-H460, in the assay with OVCAR-8, in the assay with RXF 393, in the assay with SF-539 and with SK-MEL-28 was > 100 µM (inactive) each time. For the same molecule, the GI50 is > 100 µM (inactive) in the assay with SK-OV-3; > 100 µM (inactive) in the assay with SNB-19; 0.371 µM (active) with SW-620; > 100 µM (inactive) in the assay with UACC-62; > 100 µM (inactive) in the assay on UO-31.

As to `N/N=C1\C(=O)N(C2CCCCCC2)C(=O)C1C(=O)NC1CCCCCC1` (stereo unspecified), the GI50 in the assay with CCRF-CEM was 25.4 µM (inactive); in the assay with K562, 30.3 µM (inactive); in the assay on KM12 it was 39.5 µM (inactive); with M14 it was 35 µM (inactive); in the assay on Malme-3M it was 24.7 µM (inactive); with NCI-H460 it was 42.7 µM (inactive). Besides, the GI50 in the assay on OVCAR-8 is 39.3 µM (inactive); in the assay on RXF 393, 40 µM (inactive); in the assay on SF-539 it was 24.7 µM (inactive); in the assay with SK-MEL-28, > 10 µM (inactive); in the assay with SNB-19, 35.6 µM (inactive); in the assay with SW-620 it was 28.3 µM (inactive). The figures for the GI50 with UACC-62 and with UO-31 were 18.8 µM (inactive) and 20.3 µM (inactive), respectively.

As to `Cc1cc(N(CCC#N)CCC#N)ccc1/C=C(\NC(=O)/C=C/c1ccccc1)NC(=O)Nc1ccc(Cl)cc1`, the GI50 with CAKI-1 was 19.2 µM (inactive); in the assay on CCRF-CEM, > 100 µM (inactive); in the assay on K562 it was 2.13 µM (inactive); in the assay on KM12 it was 15 µM (inactive); in the assay with M14, > 100 µM (inactive); with Malme-3M, 73.6 µM (inactive). For the same molecule, the GI50 with NCI-H226 was 30.9 µM (inactive); in the assay with NCI-H460, > 100 µM (inactive); in the assay on OVCAR-8 it was 80 µM (inactive); in the assay on RPMI-8226, > 100 µM (inactive); in the assay on RXF 393, 15.7 µM (inactive); in the assay on SF-539, 26 µM (inactive). The GI50 is > 100 µM (inactive) with SK-MEL-28; 48.4 µM (inactive) in the assay on SNB-19; > 100 µM (inactive) in the assay on SW-620; 8.83 µM (inactive) in the assay on UACC-62; 74.1 µM (inactive) in the assay on UO-31.

On to `C=Nc1ccc([N+](=O)[O-])cc1`, for which the GI50 in the assay with CAKI-1 was > 100 µM (inactive); in the assay on CCRF-CEM, > 63.1 µM (inactive); in the assay on K562 it was > 44.6 µM (inactive); in the assay with KM12, > 100 µM (inactive); with M14, > 100 µM (inactive); in the assay on Malme-3M, > 100 µM (inactive). Moreover, the GI50 in the assay with NCI-H226 was > 100 µM (inactive); in the assay with NCI-H460 it was > 59.4 µM (inactive); in the assay with OVCAR-8 it was > 100 µM (inactive); in the assay with RPMI-8226, > 31.6 µM (inactive); in the assay with SF-539 it was > 100 µM (inactive); in the assay on SK-MEL-28 it was > 100 µM (inactive). Further, the GI50 in the assay on SK-OV-3 was > 100 µM (inactive); in the assay on SNB-19, > 100 µM (inactive); in the assay on SW-620, > 63.8 µM (inactive); in the assay on UACC-62, > 84.5 µM (inactive); with UO-31 it was > 84.9 µM (inactive).

In the case of `CCNC(=O)O/N=C1\CCC2[C@@H]3CC=C4C[C@@H](OC(=O)NCC)CC[C@]4(C)C3CC[C@]12C` (stereo partly specified), the GI50 in the assay with CAKI-1 is 1.88 µM (inactive); with K562, 0.769 µM (active); in the assay with KM12, 2.9 µM (inactive); in the assay on M14, 1.31 µM (inactive); in the assay on Malme-3M, 0.267 µM (active); in the assay with NCI-H460, 1.83 µM (inactive). Also, the GI50 in the assay with OVCAR-8 was 4.03 µM (inactive); in the assay with RPMI-8226, 1.46 µM (inactive); in the assay on RXF 393, 3.42 µM (inactive); with SF-539, 8.95 µM (inactive); in the assay with SK-MEL-28, 3.19 µM (inactive); in the assay with SK-OV-3, 7.82 µM (inactive). For the same molecule, the GI50 in the assay with SNB-19 is 0.495 µM (active); in the assay with SW-620, 3.61 µM (inactive); in the assay on UACC-62, 0.951 µM (active); in the assay with UO-31 it was 1.21 µM (inactive).

For `COc1ccc2oc3c(OC)c(OC)c(OC)cc3c(=O)c2c1`, the GI50 with CAKI-1, in the assay with CCRF-CEM, with K562, in the assay with M14, in the assay with Malme-3M and with NCI-H460 was > 100 µM (inactive) throughout. For the same molecule, the GI50 was > 100 µM (inactive) in the assay on OVCAR-8; > 100 µM (inactive) with RPMI-8226; 21.4 µM (inactive) in the assay on RXF 393; 40.4 µM (inactive) with SF-539; > 100 µM (inactive) with SK-MEL-28; > 100 µM (inactive) in the assay with SK-OV-3. Besides, the GI50 in the assay on SNB-19, in the assay with SW-620, in the assay with UACC-62 and in the assay with UO-31 was > 100 µM (inactive) throughout.

Take `CCCN(CCC)c1c([N+](=O)[O-])cc(C(=O)N(C)C)cc1[N+](=O)[O-]`: the GI50 is > 100 µM (inactive) with CAKI-1; 28.4 µM (inactive) in the assay on CCRF-CEM; 19.2 µM (inactive) in the assay with K562; > 100 µM (inactive) in the assay with KM12; 96.6 µM (inactive) in the assay on M14; 52.6 µM (inactive) in the assay with Malme-3M. In addition, the GI50 was 47.3 µM (inactive) with NCI-H460; > 100 µM (inactive) in the assay on OVCAR-8; 52.2 µM (inactive) in the assay with RPMI-8226; > 100 µM (inactive) in the assay with SF-539; > 100 µM (inactive) with SK-MEL-28; > 100 µM (inactive) with SK-OV-3. Moreover, in the assay with UO-31, the GI50 is 92.9 µM (inactive).

As for `NC(=O)COc1c(Br)cc(Br)cc1Br`, the GI50 in the assay on CAKI-1, with CCRF-CEM, in the assay on K562, in the assay on KM12, in the assay with M14 and in the assay on Malme-3M was > 100 µM (inactive) throughout. Further, the GI50 with NCI-H226, in the assay with NCI-H460, with OVCAR-8, with RPMI-8226, in the assay on SF-539 and in the assay on SK-MEL-28 was > 100 µM (inactive) in each case. Moreover, the GI50 with SK-OV-3, in the assay with SNB-19, in the assay with UACC-62 and in the assay with UO-31 was > 100 µM (inactive) each time.

For `O=C1/C=C(/c2ccc(O)cc2)[C@@H](O)Cc2ccc(O)cc2O1`, the GI50 with CAKI-1 is 29.1 µM (inactive); in the assay with KM12, 88.1 µM (inactive); with M14, > 100 µM (inactive); with Malme-3M, > 100 µM (inactive); in the assay on NCI-H226 it was 0.859 µM (active); with NCI-H460, 62.4 µM (inactive). The GI50 with OVCAR-8 was > 100 µM (inactive); in the assay on SF-539, 52.5 µM (inactive); with SK-OV-3 it was 35.7 µM (inactive); in the assay on SNB-19 it was 93.5 µM (inactive); in the assay on SW-620, > 100 µM (inactive); with UACC-62, 31 µM (inactive). In the assay on UO-31, the GI50 was 85.3 µM (inactive).
